In PubChem BioAssay AID1902 (Broad Institute, 2009):
Activity calls are given as the source filed them.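 How the source made its calls: active means EC50 no more than a set limit of log units above the highest dose; inactive means the rest.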

Biological target: S. pyogenes SKKanGAS, kanamycin survival, BacTiterGlo, 6 h
Assay: S. pyogenes SKKanGAS kanamycin growth inhibitors – SKKanGAS strain, luminescence, dose confirmation, streptokinase promoter inhibitor project, dose response (AID 1902);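 further: lower survival reflects blocked streptokinase promoter driving kanamycin resistance gene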

Row | Compound | EC50
1 | Cn1c(CNC(=O)CNC(=O)c2ccc(F)cc2)cc(=O)n(C)c1=O | > 15 µM (inactive)
2 | C[n+]1c(-c2ccccc2)c2cc(N)ccc2c2ccc(N)cc21 | 1.54 µM
3 | CCOc1ccc(C(=O)NC(=S)Nc2ccc(N3CCOCC3)c(Cl)c2)cc1[N+](=O)[O-] | 0.714 µM
4 | Cc1nc(-c2ccccn2)nc(SCC(=O)c2ccccc2)c1Cl | 0.811 µM
5 | CCC/C=C(\CCC)C(NS(=O)(=O)c1ccc(C(F)(F)F)cc1)c1ccccc1 (stereo not drawn) | 3.48 µM
6 | COc1cccc(C(=O)OCC(=O)Nc2nnc(-c3ccccc3)o2)c1 | 8.68 µM
7 | Cc1ccc(C(=O)NC(=S)NNC(=O)c2ccccc2O)cc1 | 0.459 µM
8 | COc1cc(C(=O)NC(=S)N(CCc2ccccc2)CCc2ccccc2)cc(OC)c1OC | 0.328 µM
9 | CCCCCCCCCCCCCCCC[N+](C)(C)C | 3.02 µM
10 | COc1ccc(C2=NOC(CNC(N)=S)C2)cc1 (stereo not drawn) | 3.41 µM
11 | Cn1c(=O)c(C(=O)NNC(=O)c2ccccc2F)c(O)c2ccccc21 | 4.25 µM
12 | CCN1/C(=C/C(C)=C/c2sc3ccccc3[n+]2CC)Sc2ccccc21 | 2.03 µM
13 | Oc1c(C(c2ccc(Cl)cc2)N2CCCC2)cc(Cl)c2cccnc12 (stereo not drawn) | 1.53 µM
14 | CC(C)C1Cc2c(sc3[nH]c(=S)n(Cc4ccccc4)c(=O)c23)CO1 (stereo not drawn) | 2.93 µM
15 | CC1=NN(C(N)=S)C(=O)C1N=Nc1c(Br)cc(Br)cc1Br (stereo not drawn) | 2.78 µM
16 | CN1CCN(C(c2ccc(C(F)(F)F)cc2)c2cc(Cl)c3cccnc3c2O)CC1 (stereo not drawn) | 0.682 µM
17 | COc1cccc(C(=O)Oc2ccc(/C=N/Nc3ccc(C(=O)O)cc3)cc2OC)c1 | 6.23 µM
18 | CCOc1ccc2[nH]c3c(N4CCc5ccccc5C4)ncnc3c2c1 | 7.94 µM
19 | COc1cccc(N=Nc2ccc3cccnc3c2O)c1 | < 0.06 µM
20 | C[C@H]1COc2c(C3(N)CC3)c(F)cc3c(=O)c(C(=O)O)cn1c23 | 6.2 µM
21 | Fc1ccc(Cn2cccc2C2=NC(c3ccccc3)CO2)cc1 (stereo not drawn) | 7.34 µM
22 | Cc1ccc2ccc(C(Nc3cccc(C(F)(F)F)c3)c3cccnc3)c(O)c2n1 (stereo not drawn) | 1.12 µM

Row | Compound | EC50
23 | O=[N+]([O-])c1ccc(O)c(Nc2ncnc3ccc(Br)cc23)c1 | 3.32 µM
24 | CCCCNc1c(-c2ccc(SC3CCCCC3)cc2)nc2ccccn12 | 3.87 µM
25 | O=C(/C=C/c1ccc(Br)cc1)NC(=S)NNC(=O)c1ccco1 | 0.391 µM
26 | CCCCCCc1cc2cc(-c3nnc(-c4ccccc4)o3)c(=O)oc2cc1O | 3.05 µM
27 | Cc1cccc(NC(=O)c2sc(Cl)nc2-c2ccccc2)c1 | 11.2 µM
28 | COc1c(N2CCN(C(=S)Nc3ccccc3F)C(C)C2)c(F)cc2c(=O)c(C(=O)O)cn(C3CC3)c12 (stereo not drawn) | 2.67 µM
29 | CCCCC1CCC(c2nc(-c3ccccn3)no2)CC1 (stereo not drawn) | 8.61 µM
30 | CCN(CC)c1nc(Nc2ccc([N+](=O)[O-])cc2)nc(N(CC)CC)n1 | 3.15 µM
31 | CCCCc1ccc(NC(=S)NCCc2ccc(F)cc2)cc1 | 5.7 µM
32 | O=[N+]([O-])c1ccc(-c2cnc(SC(c3ccccc3)c3ccccc3)[nH]2)cc1 | 11 µM
33 | Cc1cccc(Nc2nc(N)nc(CN3CCN(c4ccccc4F)CC3)n2)c1 | 15.4 µM
34 | C=CCn1c(COc2ccccc2)nnc1SCC(=O)N/N=C/c1cc(Cl)ccc1O | 3.32 µM
35 | O=C(CSc1nc2nc(-c3cccs3)cc(C(F)(F)F)c2c(=O)[nH]1)Nc1ccc(F)c(F)c1 | 1.16 µM
36 | Cc1cc2c(cc1C)-c1c(ssc1=Nc1ccc(S(N)(=O)=O)cc1)C(C)(C)N2 | 11.7 µM
37 | CC(=O)O[C@H]1C[C@@]2(C)[C@@H](C[C@@H](O)[C@H]3[C@@]4(C)CC[C@@H](O)[C@@H](C)[C@@H]4CC[C@@]32C)/C1=C(\CCC=C(C)C)C(=O)O | 0.177 µM
38 | CC[C@@H](C)[C@H](CNC)NC[C@@H](Cc1cccc2ccccc12)NCCc1cccc(C(F)(F)F)c1 | 2.44 µM
39 | O=C(O)c1ccc(N/N=C/c2ccc(-c3ccc(Br)cc3)o2)cc1 | 2.36 µM
40 | COc1ccc(C2c3ccc(O)cc3Oc3ncn4nc(-c5ccncc5)nc4c32)cc1OC (stereo not drawn) | 6.28 µM
41 | CC1CC(C)CN(S(=O)(=O)c2ccc(C(=O)Nc3nnc(C4CC4)o3)cc2)C1 (stereo not drawn) | 1.03 µM
42 | O=c1cc(CSc2ccc(Cl)cc2)nc(-c2ccccn2)[nH]1 | 0.371 µM
43 | COc1cc(C)ccc1OCCCOc1ccccc1Br | 5.9 µM
44 | COc1ccccc1CN1CN(S(=O)(=O)c2ccccc2)c2nc3ccccc3nc21 | 5.13 µM

Row | Compound | EC50
45 | Cc1cccc(NC(c2ccc(C)s2)c2ccc3ccc(C)nc3c2O)n1 (stereo not drawn) | 3.9 µM
46 | O=C(NC1=NCCS1)c1cc(-c2ccccc2)nn1-c1ccccc1 | 6.06 µM
47 | CC(C)NC(=O)NC(=O)CSc1nnc(COc2ccccc2F)n1C(C)C1CC2CCC1C2 (stereo not drawn) | 6.58 µM
48 | O=C(Nc1cccc(Cl)c1N1CCCC1)c1cc2ccccc2o1 | 4.81 µM
49 | CC(C)(C)c1cc(C(=O)N/N=C/c2ccc([N+](=O)[O-])s2)n[nH]1 | 7.4 µM
50 | COc1ccc(-c2oc3ncn(Cc4ccco4)c(=N)c3c2-c2ccc(OC)cc2)cc1 | 4.76 µM
51 | Cc1nn(-c2ccccc2)c2sc(-c3n[nH]c(=S)o3)cc12 | 3.99 µM
52 | COc1ccc(C(=O)CSc2[nH]c(=O)cc(C(F)(F)F)c2C#N)cc1 | 7.06 µM
53 | CC(C)c1ccc(-c2cc(C(=O)N3N=C(C(F)F)CC3(O)C(F)F)c3ccccc3n2)cc1 (stereo not drawn) | 3.11 µM
54 | O=S(=O)(NCCSCc1c(Cl)cccc1Cl)c1ccc2c(c1)OCCO2 | 7.45 µM
55 | c1ccc(Nc2nc3ccccc3[nH]2)nc1 | 1.46 µM
56 | COC(=O)c1c(NC(=O)COc2ccc(Cl)cc2)sc2c1CC(C)(C)NC2(C)C | 12.5 µM
57 | COc1ccc(C(=O)NNC(=S)NC(=O)/C=C/c2cccs2)cc1 | 0.598 µM
58 | CCOc1ccc2c(c1)c1nnc(SCC(=O)N3CCC(C)CC3)nc1n2C | 15.6 µM
59 | CCN(CC)CCN(C(=O)CCS(=O)(=O)c1ccccc1)c1nc2cc(C)cc(C)c2s1 | > 15 µM (inactive)
60 | OC(CNCc1ccco1)Cn1c2ccc(Br)cc2c2cc(Br)ccc21 (stereo not drawn) | 5.85 µM
61 | C/C(=N\NC(=O)c1nnn(-c2nonc2N)c1CN(C)c1ccccc1)c1ccccc1O | 2.75 µM
62 | Oc1cccc2ccc(/C=C/c3cccs3)nc12 | 2.91 µM
63 | COC(=O)c1ccc(Oc2nc3ccccc3n3c(C)nnc23)cc1 | 6.1 µM
64 | CN1c2ccccc2C(C)(C)C12C=Nc1c(ccc3ccccc13)O2 (stereo not drawn) | 2.16 µM
65 | CCC(CC)C1=NN2C(=N)/C(=C\c3cc(C)n(-c4cccc(C)c4)c3C)C(=O)N=C2S1 | 2.91 µM
66 | COC(=O)C1=C(C)NC2=C(C(=O)c3ccccc32)C1c1ccc(-c2ccc(C(=O)O)cc2)o1 (stereo not drawn) | 2.76 µM

Row | Compound | EC50
67 | O=C(N/N=C/c1cccc(F)c1)c1c(O)c2ccccc2[nH]c1=O | 2.54 µM
68 | COc1ccc(Br)cc1/C=C/c1ccc2cccc(O)c2n1 | 0.138 µM
69 | CC(C)C[C@H](NC(=O)c1[nH]cnc1C(=O)N[C@@H](C)c1ccccc1)C(=O)OCc1ccccc1 | 1.16 µM
70 | C/C(=N\Nc1nc2ccccc2[nH]1)c1ccc2c(c1)OCO2 | 4.28 µM
71 | O=C(c1cc2ccccc2cc1O)N1CCN(c2ccccc2O)CC1 | 9.87 µM
72 | Cc1ccc(CNC(=S)NC2CCC(C(C)(C)C)CC2)cc1 (stereo not drawn) | 3.4 µM
73 | CCN1/C(=C/c2ccc3cc(C)ccc3[n+]2CC)Sc2ccc3sccc3c21 | 2.34 µM
74 | CN1CC(c2ccc(Cl)c(Cl)c2)[C@@]2(COc3ccccc3C2=O)[C@@]12C(=O)Nc1ccccc12 (stereo partly drawn) | 1.43 µM
75 | O=C(O)CCCNc1cc(N2CCN(C(=O)c3ccco3)CC2)c2noc3c2c1C(=O)c1ccccc1-3 | 6.02 µM
76 | COc1cccc(CNCC(O)(c2ccc(Cl)cc2)c2ccc(Cl)cc2)c1 | 3.7 µM
77 | O=C(C1CCCCC1)N1CCC(c2nc3c(nnn3Cc3c(F)cccc3Cl)c(=O)[nH]2)CC1 | 3.79 µM
78 | Cc1c(Cl)cccc1NC(=S)NCCC(c1ccccc1)c1ccccc1 | 9.25 µM
79 | CCCCn1c(=O)c(C(=O)NCCc2ccccc2)c(O)c2ccccc21 | 3.73 µM
80 | CC(Oc1ccc(Br)cc1)C(=O)Nc1nc(-c2ccccn2)cs1 (stereo not drawn) | < 0.06 µM
81 | Oc1c(Br)cc(Br)cc1/C=N/Nc1ccc(Cl)nn1 | 0.481 µM
82 | COc1ccc(C(=O)O)cc1NC(=S)NC(=O)c1ccc(-c2ccc(Cl)cc2)o1 | 2.3 µM
83 | CCCOc1ccc(Cc2c(Cl)nc(SC)nc2N(C)C)cc1 | 3.46 µM
84 | O=C(COc1ccc(F)cc1)Nc1nc(-c2ccccn2)cs1 | 5.55 µM
85 | CC(OC(=O)Cc1n[nH]c(=O)c2ccccc12)C(=O)Nc1ccc(Cl)cn1 (stereo not drawn) | 14.7 µM
86 | COc1ccc(/C=C2/Sc3ccc(C(=O)N4CCc5ccccc5C4)cc3NC2=O)cc1 | 1.65 µM
87 | CC(=O)Nc1ccc(NC(=O)CSc2nnc(NC(=O)c3ccc(Br)o3)s2)cc1 | 2.68 µM
88 | Cc1cccc(C)c1OC(=O)C(c1ccccc1)c1ccccc1 | 3.17 µM

Row | Compound | EC50
89 | CCCCNc1c(-c2ccc(SC(C)CC)c(OC)c2)nc2ccc(C)cn12 (stereo not drawn) | 3.46 µM
90 | COC(=O)c1sc(-c2ccc(C(C)(C)C)cc2)cc1NC(=O)CSCC(=O)O | 3.91 µM
91 | Cc1cc(NC(=O)/C=C/c2ccccc2Cl)n(-c2nc3ccccc3[nH]2)n1 | 1.9 µM
92 | CCOc1ccc(/C=N/Nc2cc(N3CCOCC3)nc(C)n2)c(O)c1 | 8.48 µM
93 | Nc1nc(Nc2ccc(Cl)cc2)nc(NCc2ccco2)c1[N+](=O)[O-] | 6.56 µM
94 | CC(C)C1O/C(=N/C(=O)Nc2ccc(Cl)c(Cl)c2)NC1=O (stereo not drawn) | 2.53 µM
95 | COc1ccc(CCN2C(=O)c3[nH]nc(-c4ccccc4O)c3C2c2cccc(Cl)c2)cc1 (stereo not drawn) | 7.71 µM
96 | Cc1ccc(Nc2cc(C)nn2-c2nc(C)cc(C)n2)cc1 | 6.47 µM
97 | CCOc1c(OC(C)=O)ccc(/C=C/c2ccc3cccc(OC(C)=O)c3n2)c1[N+](=O)[O-] | 1.6 µM
98 | Cc1ccc(C(=O)NNC2=Nc3cccc4cccc2c34)cc1 | 3.14 µM
99 | O=C(Nc1cc(Cl)cc(Cl)c1)Nc1cnccn1 | 4.85 µM
100 | O=C1C=C(Nc2ccccc2O)c2ccccc2C1=O | 3.08 µM
101 | Cc1cccc(C)c1OCC(O)CN1CCC(CN2C(=O)c3cccc4cccc(c34)C2=O)CC1 (stereo not drawn) | 7.35 µM
102 | O=C(Cn1nnc(-c2ccccc2)n1)N/N=C/c1cc([N+](=O)[O-])ccc1O | 0.75 µM
103 | Cn1c(N)c(C(=O)COC(=O)/C=C/c2ccc(OC(F)F)cc2)c(=O)n(C)c1=O | 1.47 µM
104 | CCn1c(=O)c(C(=O)NNC(=O)c2ccc(Cl)cc2Cl)c(O)c2ccccc21 | 1.99 µM
105 | CC(C)COC(=O)c1cccc2c1-c1ccccc1/C2=N\O | 4.99 µM
106 | CC(C)c1ccccc1OCC(O)CN(CC(O)COc1cccc2ccccc12)C(C)C (stereo not drawn) | 4.24 µM
107 | CC(C)N=c1cc2n(-c3ccc(Cl)cc3)c3ccccc3nc-2cc1Nc1ccc(Cl)cc1 | 1.24 µM
108 | CC(C)/C(=N/Nc1ccccc1[N+](=O)[O-])c1ccccc1 | 6.51 µM
